{"source": "patent US9622469B2", "about": "“Crosslink breakers for preservation of biological substances” (priority 2013, dated 2017)", "key": {"[1]": {"assay": "Stability studies of NHC precursors under the PPD cleavage reaction conditions", "type": "physicochemical", "conditions": "exposure to PPD, Method B conditions", "source_text": "Instead, 7 gave rise predominantly to an oxalamide derivative, which is believed to form via dimerization and oxidation of intermediate carbenes. […] Stability studies afforded additional insights.\nIn cleavage of PPD with ALT-711 (2), we detected several decomposition products of the catalyst that appear to be adducts between 2 and an acetyl group, the remainder of PPD following the release of benzoic acid. One adduct that has been isolated and characterized explains why the concentration of ALT-711 diminishes after cleaving PPD while the benzyl counterpart (4) behaves as a stable catalyst. Instead of liberating acetaldehyde and re-entering the catalytic cycle, oxidation of alcohol 13 to the corresponding methyl ketone followed by an aldol condensation with the phenyl ketone gives rise to a thiazolopyridinium derivative (see Supplementary Material for details)."}, "[2]": {"conditions": "various animal studies and clinical trials; cited from earlier work"}, "[3]": {"assay": "NHC-mediated reaction with α-keto aldehyde phenylglyoxal (16), Method B", "type": "biochemical", "conditions": "isolated yield with respect to 2", "method": "(§1) 60 mM solution of dicarbonyl substrate (45 μmol) in MeCN (0.75 ml) was added to 20 mM solution of NHC (15 μmol) in 0.15 M pH 7.4 sodium phosphate buffer (0.75 ml) and kept stirred at 37° C. At stated times, 75 μl aliquots were taken, diluted with 50% MeCN/H2O (425 μl) and analyzed by LCMS with 2,4-dihydroxyquinoline (248 μM) as an internal standard. The cleavage products were quantified by peak integration against the calibration curves.\nPhenylglyoxal hydrate (16; 114 mg, 0.75 mmol, 2 eq) was added to a solution of ALT-711 (2; 100 mg, 0.37 mmol) in 50% MeCN/0.15 M pH 7.4 phosphate buffer (total vol. 37 ml) and kept stirred at room temperature for 15 mins. The reaction mixture was cooled to −20° C. to precipitate out sodium phosphate as white crystals. The supernatant was transferred, and the residue was washed with MeCN and combined with the supernatant. This yellow clear solution was concentrated at room temperature to remove MeCN and purified by HPLC (16-27MeCN over 31 min). […]\nReactions involving α-keto aldehyde derivatives 16 and 17 followed an unexpected course. Treatment of these substrates with 2 led to instantaneous, high-yield production of a diastercomeric mixture of cycloadducts (19 and 20) that decompose to complex mixtures under the reaction conditions with half-lives of approximately 3 h Structures were determined based on in-depth NMR analysis (see Supplementary Material)."}, "[4]": {"assay": "Cleavage of PPD by NHC precursors, Method A (alcoholic co-solvent)", "type": "biochemical", "conditions": "co-solvent MeOH", "method": "Dicarbonyl cleavage reactions were performed using either the method described in Vasan et al., An agent cleaving glucose-derived protein crosslinks in vitro and in vivo, Nature (1996) Vol. 382, pp. 275-278 (Method A) or a modified method with MeCN as a co-solvent (Method B).\nPPD (21 μl, 156 μmol) was added to a murky solution of NHC (2 or 4, 71 μmol) in 50% MeOH/0.5 M pH 7.4 sodium phosphate buffer (3.5 ml/3.5 ml; final conc. 10 mM NHC, 22 mM PPD) and kept stirred at 37° C. Approximately 0.5 ml aliquots were taken at stated times and analyzed by HPLC. Experiments using EtOH or iPrOH as a co-solvent were done in the same manner. Concentrations of benzoic acid and benzoate esters were determined by peak integration against the calibration curves.\nHaving learned that ALT-711 performed best among NHCs evaluated for PPD cleavage, we sought to test its substrate scope versus its N-benzyl counterpart (4). We therefore measured product distribution and yield while varying the co-solvent used to solubilize dicarbonyl substrates. As summarized in Table 2, we first investigated the performance of alcoholic co-solvents in PPD cleavage reactions. […] Despite this, however, the product distributions differed substantially: ALT-711 (2) predominantly afforded benzoic acid (PhCO2H:PhCO2Me=3.2:1, Entry 2), whereas 4 mostly gave rise to methyl benzoate (PhCO2H:PhCO2Me=1:2.2, Entry 4). Further replacement of the co-solvent with EtOH and i-PrOH in 4-catalyzed reactions led to a decrease in the proportion of ester production, still without altering overall yield (Entries 5 and 6)."}, "stored mouse blood": {"system": "stored mouse blood", "assay": "Glucose in serum of stored mouse blood (glucose oxidase enzymatic assay)", "type": "cell-based", "conditions": "typical storage conditions, up to 14 days", "method": "(§2) Leuko-reduced mouse blood was stored under typical storage conditions for up to 14 days, in either OCR6043, control compound, or without any treatment. FIG. 2A illustrates an analysis of glucose in the serum from the stored blood was evaluated using a glucose oxidase enzymatic assay. […] FIG. 2B illustrates the AGE precursor levels on RBCs were measured using a dicarbonyl-specific fluorophore that was developed in-house. The time dependent increase in the AGE precursor levels was dampened in the presence of OCR6043. FIG. 2C illustrates mouse blood that was stored for 14 days, was evaluated for its immunogenicity upon transfusion, by testing for IgGs against an alloantigen on the RBCs (HOD=HEL-OVA-Duffy)."}, "[5]": {"assay": "NHC-mediated cleavage of bis-alkyl diketone 14, Method B", "type": "biochemical", "conditions": "LCMS, with respect to dicarbonyl", "method": "as §1\nOur efforts to investigate the scope of thiazolium salt-mediated reactions with dicarbonyls began with bis-alkyl diketone 14 (Table 3, Entry 1). This substrate is cleaved cleanly by 2, and affords acid 18 in 82% yield. NHC precursor 4, on the other hand, provides 18 in only 14% yield (Entry 2). The efficiency of dicarbonyl cleavage reactions decreases substantially in the case of benzil (15, Entry 3), which affords benzoic acid in 14% and 1% yield following exposure to 2 and 4, respectively."}, "[6]": {"system": "HOD alloantigen on stored RBCs", "assay": "Immunogenicity of stored blood upon transfusion (anti-HOD IgG ELISA)", "type": "in vivo, mouse", "conditions": "blood stored 14 days, transfused into B6 mice, 14 days following transfusion", "method": "as §2\nOCR6043 treatment decreases immunogenicity, and enhances post-transfusion recovery of stored mouse blood. Leukoreduced mouse blood was stored under typical storage conditions for up to 14 days in either OCR6043 or without any treatment. This mouse blood was evaluated for its immunogenicity upon transfusion by testing for IgGs against an alloantigen on the RBCs (HOD=HEL-OVA-Duffy).\nAs described herein, the stored blood has an HOD marker allowing facile detection after transfusion. We transfused […] of stored blood into B6 mice (not expressing the HOD antigen). […] The anti-HOD IgG response was evaluated using standard ELISA techniques described in Hendrickson et at."}}, "note": "Entries after “also recorded” stand apart in the source; their conditions may differ. Marks after values point to notes of the source that are not given here.", "data": [{"molecule": "Cc1sc[n+](CC(=O)c2ccccc2)c1C.[Cl-]", "note": "[Compound 2]", "values": [{"measurement": "Stability of NHC precursor under the reaction conditions", "setting": "[1]", "value": "disappear from solution"}, {"measurement": "Toxicity to animals and humans", "setting": "[2]", "value": "non-toxic"}, {"measurement": "% Yield of cycloadduct 19 from substrate 16", "setting": "[3]", "value": "55^b %"}, {"measurement": "Combined % Yield (PhCO2H, PhCO2Me)", "setting": "[4]", "value": 54, "unit": "%"}, {"measurement": "Glucose levels in serum of stored blood", "setting": "stored mouse blood", "value": "more effective preservation of glucose levels"}, {"measurement": "% Yield of acid 18 from substrate 14", "setting": "[5]", "value": 82, "unit": "%"}, {"measurement": "Immunogenicity upon transfusion (IgG against HOD alloantigen)", "setting": "[6]; listed as ALT-711", "value": "lower immunogenicity"}, {"measurement": "Immunogenicity upon transfusion (IgG against HOD alloantigen)", "setting": "[6]; listed as OCR6043", "value": "decreased immunogenicity; also recorded: attenuated this immune response"}]}]}
